Consider 20 compounds from ChEMBL document CHEMBL4699570, “Design, synthesis and biological evaluation of novel c-Met/HDAC dual inhibitors” (Bioorg Med Chem Lett, 2020).

The inhibition is the share of the control response that was lost under treatment. Read a high inhibition as a strong effect. Usually IC50 stands for the point on the concentration scale where inhibition reaches its midpoint.

Test [1] has as its target T1, Hepatocyte growth factor receptor (Homo sapiens, UniProt P08581). Conditions: dose 100.0 nM.
Description: Inhibition of c-MET (unknown origin) at 100 nM relative to control
The test system of another test is A549. The test is described as follows: Antiproliferative against human A549 cells assessed as reduction in cell viability by MTT assay. In kind it is functional, cell-based.
In test [2] the target is T2, Histone deacetylase 1 (Homo sapiens, UniProt Q13547). Conditions: dose 100.0 nM.
Description: Inhibition of HDAC1 (unknown origin) at 100 nM relative to control
In a further test the test system is MCF7. The test is described as follows: Antiproliferative against human MCF-7 cells assessed as reduction in cell viability by MTT assay. It counts as functional, cell-based. (Tetrazolium dyes change colour on reduction, which living cells bring about.)
Test [3] deals with T1, Hepatocyte growth factor receptor. The test is described as follows: Inhibition of c-MET (unknown origin).
In test [4] the target is T2, Histone deacetylase 1. The test is described as follows: Inhibition of HDAC1 (unknown origin).

T1 sequence (P08581 whole entry): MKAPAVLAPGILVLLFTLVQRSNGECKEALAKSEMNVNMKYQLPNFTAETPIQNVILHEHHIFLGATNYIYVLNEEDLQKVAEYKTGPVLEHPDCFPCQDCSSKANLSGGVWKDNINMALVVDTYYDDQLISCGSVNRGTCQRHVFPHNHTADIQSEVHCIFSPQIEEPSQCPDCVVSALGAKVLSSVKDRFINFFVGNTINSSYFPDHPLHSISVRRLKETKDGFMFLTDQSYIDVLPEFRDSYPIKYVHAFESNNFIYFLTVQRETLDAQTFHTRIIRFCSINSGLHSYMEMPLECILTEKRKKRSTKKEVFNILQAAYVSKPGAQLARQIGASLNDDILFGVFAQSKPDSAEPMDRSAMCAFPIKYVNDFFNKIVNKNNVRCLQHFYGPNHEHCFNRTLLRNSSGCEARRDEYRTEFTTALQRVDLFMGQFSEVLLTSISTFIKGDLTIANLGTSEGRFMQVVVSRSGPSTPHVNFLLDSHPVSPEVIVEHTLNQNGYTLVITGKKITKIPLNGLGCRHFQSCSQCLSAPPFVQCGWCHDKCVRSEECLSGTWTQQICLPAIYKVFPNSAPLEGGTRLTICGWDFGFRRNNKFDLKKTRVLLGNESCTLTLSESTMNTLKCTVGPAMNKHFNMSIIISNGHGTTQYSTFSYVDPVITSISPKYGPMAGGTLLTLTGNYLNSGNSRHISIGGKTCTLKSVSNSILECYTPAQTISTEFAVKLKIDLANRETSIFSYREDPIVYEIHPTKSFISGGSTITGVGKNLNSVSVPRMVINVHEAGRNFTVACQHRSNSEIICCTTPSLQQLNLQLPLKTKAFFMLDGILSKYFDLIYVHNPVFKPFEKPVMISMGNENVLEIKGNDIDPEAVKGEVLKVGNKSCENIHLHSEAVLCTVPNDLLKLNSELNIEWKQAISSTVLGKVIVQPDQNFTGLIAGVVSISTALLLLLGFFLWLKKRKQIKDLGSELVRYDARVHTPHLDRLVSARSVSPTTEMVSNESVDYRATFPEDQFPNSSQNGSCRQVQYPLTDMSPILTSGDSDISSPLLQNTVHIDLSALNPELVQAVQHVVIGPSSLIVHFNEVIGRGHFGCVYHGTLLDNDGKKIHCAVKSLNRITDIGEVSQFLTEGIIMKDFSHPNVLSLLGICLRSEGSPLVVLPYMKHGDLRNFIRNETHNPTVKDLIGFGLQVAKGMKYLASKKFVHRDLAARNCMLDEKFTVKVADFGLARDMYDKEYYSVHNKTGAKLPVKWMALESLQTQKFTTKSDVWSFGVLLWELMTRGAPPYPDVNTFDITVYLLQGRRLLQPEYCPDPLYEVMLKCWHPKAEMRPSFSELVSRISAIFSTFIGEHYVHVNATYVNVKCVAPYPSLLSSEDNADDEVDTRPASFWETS
T2 sequence (Q13547 whole entry): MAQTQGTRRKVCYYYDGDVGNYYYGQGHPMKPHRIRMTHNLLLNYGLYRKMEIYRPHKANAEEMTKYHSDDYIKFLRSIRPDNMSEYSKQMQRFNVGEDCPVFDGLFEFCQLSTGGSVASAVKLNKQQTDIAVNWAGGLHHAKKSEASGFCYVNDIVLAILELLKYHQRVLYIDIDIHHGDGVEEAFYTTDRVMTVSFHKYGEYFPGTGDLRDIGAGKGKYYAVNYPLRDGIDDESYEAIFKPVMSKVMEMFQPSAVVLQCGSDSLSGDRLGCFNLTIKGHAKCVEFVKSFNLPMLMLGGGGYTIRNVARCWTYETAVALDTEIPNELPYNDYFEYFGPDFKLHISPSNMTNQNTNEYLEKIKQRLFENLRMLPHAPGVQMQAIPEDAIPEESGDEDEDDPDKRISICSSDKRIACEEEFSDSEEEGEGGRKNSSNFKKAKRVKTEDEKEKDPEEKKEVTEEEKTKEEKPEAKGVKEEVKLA

For the compound `COc1cc2c(Oc3ccc(NC(=O)Nc4ccc(C)cc4C)cc3)ccnc2cc1OCCCCCCC(=O)NO`, the inhibition was found to be 44.7% in test [1] and 26.4% against Histone deacetylase 1 [2]. Moreover, the IC50 in the test with A549 is 5490 nM; in the test on MCF7, 3430 nM.

For `COc1cc2c(Oc3ccc(NC(=O)NNC(=O)c4ccccc4)cc3)ccnc2cc1OCCCCCCC(=O)NO`, the inhibition in test [1] amounted to 38.5%; at Histone deacetylase 1 [2], 34.4%. For the same compound, the results for the IC50 with A549 and in the test with MCF7 were 2820 nM and 2450 nM, respectively.

Turning to `COc1cc2c(Oc3ccc(NC(=O)NNC(=O)c4cccc(C)c4)cc3)ccnc2cc1OCCCCCCC(=O)NO`, the inhibition stood at 29.9% in test [1] and 67.6% on Histone deacetylase 1 [2]. Further, the IC50 in the test with A549 was determined as 8190 nM; in the test with MCF7, 5830 nM.

Consider `COc1cc2c(Oc3ccc(NC(=O)Nc4ccccc4F)cc3)ccnc2cc1OCCCCCCC(=O)NO`, for which the inhibition worked out at 95.5% in test [1] and 32.1% on Histone deacetylase 1 [2]. The IC50 in test [3] worked out at 39.2 nM; with A549, 870 nM; in the test on MCF7, 660 nM; against Histone deacetylase 1 [4] it was 131 nM.

As to `COc1cc2c(Oc3ccc(NC(=O)Nc4ccccc4C(F)(F)F)cc3)ccnc2cc1OCCCCCCC(=O)NO`, the inhibition in test [1] was 28.6%; against Histone deacetylase 1 [2], 76.6%. Also, the IC50 stood at 5280 nM with A549 and 1080 nM in the test on MCF7.

As to `COc1cc2c(Oc3ccc(NC(=O)Nc4cccc(C)c4)cc3)ccnc2cc1OCCCCCCC(=O)NO`, the inhibition in test [1] was determined as 25.7%; at Histone deacetylase 1 [2] it was 66.6%. The IC50 worked out at 2010 nM in the test with A549 and 1240 nM in the test with MCF7.

Take `COc1cc2c(Oc3ccc(NC(=O)NC4CCCCC4)cc3)ccnc2cc1OCCCCCCC(=O)NO`: the inhibition in test [1] stood at 38%; against Histone deacetylase 1 [2] it was 14.1%. For the same compound, the half-inhibitory concentration (IC50) in test [3] stood at 21.4 nM; in the test with A549 it was 850 nM; with MCF7, 600 nM; on Histone deacetylase 1 [4], 45.2 nM.

As for `COc1cc2c(Oc3ccc(NC(=O)N/N=C/c4ccc(F)cc4)cc3)ccnc2cc1OCCCCCCC(=O)NO`, the inhibition in test [1] turned out to be 24.2%; at Histone deacetylase 1 [2], 56.1%. Also, the IC50 in the test on A549 turned out to be 4920 nM; in the test on MCF7, 1360 nM.

Turning to `COc1cc2nccc(Oc3ccc(NC(=O)C4(C(=O)Nc5ccc(F)cc5)CC4)cc3)c2cc1OC` [CABOZANTINIB], the figures for the IC50 with A549 and with MCF7 were 7210 nM and 5400 nM, respectively. For the same compound, the inhibition at Histone deacetylase 1 [2] worked out at 20.9%.

Regarding `COc1cc2c(Oc3ccc(NC(=O)Nc4ccccc4)cc3)ccnc2cc1OCCCCCCC(=O)NO`, the inhibition in test [1] came out at 48%; against Histone deacetylase 1 [2], 23.1%. In addition, the IC50 in test [3] worked out at 17 nM; in the test on A549 it was 1650 nM; in the test with MCF7, 1040 nM; on Histone deacetylase 1 [4] it was 75 nM.

Turning to `COc1cc2c(Oc3ccc(NC(=O)NCCc4ccccc4)cc3)ccnc2cc1OCCCCCCC(=O)NO`, the values for the inhibition (in test [1]; against Histone deacetylase 1 [2]) were 14.3% and 88%, respectively. In addition, the results for the IC50 with A549 and in the test on MCF7 were 9040 nM and 4120 nM, respectively.

The compound `COc1cc2c(Oc3ccc(NC(=O)N/N=C/c4ccccc4)cc3)ccnc2cc1OCCCCCCC(=O)NO` displayed an inhibition in test [1] of 75.9%. Besides, the IC50 stood at 3700 nM with A549 and 610 nM in the test with MCF7.

For the compound `COc1cc2c(Oc3ccc(NC(=O)Nc4ccc(C(F)(F)F)cc4Cl)cc3)ccnc2cc1OCCCCCCC(=O)NO`, the inhibition stood at 93.1% in test [1] and 28.1% at Histone deacetylase 1 [2]. Further, the IC50 in test [3] stood at 41.2 nM; in the test with A549 it was 970 nM; with MCF7, 500 nM; against Histone deacetylase 1 [4], 148 nM.

For the compound `COc1cc2c(Oc3ccc(NC(=O)N/N=C/c4ccccc4F)cc3)ccnc2cc1OCCCCCCC(=O)NO`, the inhibition in test [1] came out at 81.5%; at Histone deacetylase 1 [2], 10.4%. Moreover, the IC50 in the test on A549 stood at 7780 nM; in the test on MCF7, 1610 nM.

As to `COc1cc2c(Oc3ccc(NC(=O)C4(C(=O)Nc5ccc(F)cc5)CC4)cc3F)ccnc2cc1OCCCN1CCOCC1` [FORETINIB], the results for the IC50 in the test on A549 and with MCF7 were 910 nM and 560 nM, respectively. The same compound gave an inhibition at Histone deacetylase 1 [2] of 38.6%.

Take `COc1cc2c(Oc3ccc(NC(=O)Nc4ccc(Cl)c(C(F)(F)F)c4)cc3)ccnc2cc1OCCCCCCC(=O)NO`: the figures for the inhibition (in test [1]; on Histone deacetylase 1 [2]) were 94.8% and 40.9%, respectively. The IC50 in the test with A549 is 5020 nM; in the test on MCF7 it was 5150 nM.

On to `COc1cc2c(Oc3ccc(NC(=O)Nc4ccccc4Cl)cc3)ccnc2cc1OCCCCCCC(=O)NO`, for which the inhibition in test [1] was 30.4%; at Histone deacetylase 1 [2], 45.2%. For the same compound, the IC50 with A549 is 1910 nM; with MCF7, 2780 nM.

Consider `COc1cc2c(Oc3ccc(NC(=O)Nc4ccc(OC(F)(F)F)cc4)cc3)ccnc2cc1OCCCCCCC(=O)NO`, for which the figures for the inhibition (in test [1]; against Histone deacetylase 1 [2]) were 29.8% and 11.7%, respectively. Besides, the IC50 with A549 was 3130 nM; in the test with MCF7 it was 3200 nM.

With `COc1cc2c(Oc3ccc(NC(=O)NNC(=O)c4ccccc4F)cc3)ccnc2cc1OCCCCCCC(=O)NO`, the inhibition in test [1] came to 81.4%; at Histone deacetylase 1 [2] it was 28.7%. Also, the IC50 in the test on A549 stood at 2420 nM; in the test on MCF7 it was 3600 nM.

Consider `COc1ccccc1NC(=O)Nc1ccc(Oc2ccnc3cc(OCCCCCCC(=O)NO)c(OC)cc23)cc1`, for which the inhibition in test [1] was 31.9%. Also, the figures for the concentration for half-maximal inhibition (IC50) in the test on A549 and in the test on MCF7 were 16200 nM and 6280 nM, respectively.
